Results from patent publication US20230100838A1 (Revolution Medicines, Inc., priority 2019, published 2023).

Legend:
Type in all cases: binding
[1] = molecular target: T1, GDP-loaded K-Ras (1-169) G12D, C51S, C80L, C118S (Homo sapiens, UniProt P01116, C118S/C51S/C80L/G12D); assay: K-Ras G12D(GDP) cross-linking assay (conjugate formation, TOF mass spectrometry); design: key: 0: No observed x-linking; +: 0 < x ≤ 20; ++: 20 < x ≤ 40; +++: 40 < x ≤ 100; conditions: percent covalently modified K-Ras by MS, room temperature, typical compound conc. 2, 10, 25 μM, endpoints 1 and 24 h
T1 construct: GDP-loaded K-Ras (1-169) G12D, C51S, C80L, C118S
Protocol: (§1) Protocol: K-Ras G12D(GDP) Cross-Linking Assay
(§2) Note: while the following protocol outlines the procedure for K-Ras G12D(GDP), a person of skill in the art may substitute other Ras proteins, and may also substitute a non-hydrolyzable GTP analog for GDP to study GTP bound Ras protein.
(§3) GDP-loaded K-Ras (1-169) G12D, C51S, C80L, C118S and GDP-loaded K-Ras (1-169) C51S, C80L, C118S were adjusted to 50 μM in K-Ras assay buffer (12.5 mM HEPES, 75 mM NaCl and 1 mM MgCl2 at pH 7.4). A 5 μL aliquot of each protein solution was added to each well of a 96-well microplate containing 40 μL of assay buffer. Initial compound stocks were prepared in DMSO at 100 times their final assay concentration. Compounds were then diluted 10-fold into K-Ras assay buffer to 10 times their final concentration. A 5 μL aliquot of each diluted compound solution was added to each protein solution in the 96-well microplate to initiate the reaction, which then proceeded at room temperature. Typical final compound concentrations were 2, 10, and 25 μM. At each time point, the reactions were analyzed immediately or quenched with 5 μL of a 5% formic acid solution and kept at 4° C. until analysis. Typical assay endpoints were 1 and 24 h.
(§4) Data collection took place on an Agilent 6230 TOF Mass Spectrometer. Complete reactions were injected onto a C4 reverse-phase column to separate protein from buffer components prior to entering the mass spectrometer. The proteins were eluted from the column by increasing acetonitrile fraction in the mobile phase and fed directly into the mass analyzer. Initial analysis of raw data took place in Agilent MassHunter BioConfirm software and consisted of deconvolution of multiple protein charge states with the maximum entropy algorithm, with a mass step of 1 Da. The heights of all deconvoluted protein masses were exported for further data analysis. The percent modification of each protein was then determined by calculating the peak height of the covalently modified K-Ras species as a percentage of the sum total of K-Ras protein peak height.

[2] = molecular target: T2, GDP-loaded K-Ras (1-169) C51S, C80L, C118S (Homo sapiens, UniProt P01116, C118S/C51S/C80L); assay: K-Ras WT (GDP) cross-linking assay (conjugate formation, TOF mass spectrometry); design: key: 0: No observed x-linking; +: 0 < x ≤ 20; ++: 20 < x ≤ 40; +++: 40 < x ≤ 100; conditions: percent covalently modified K-Ras by MS, room temperature, typical compound conc. 2, 10, 25 μM, endpoints 1 and 24 h
T2 construct: GDP-loaded K-Ras (1-169) C51S, C80L, C118S
Protocol: as §1, §2, §3, §4

[3] = molecular target: K-Ras G12S (Homo sapiens, UniProt P01116, G12S); assay: K-Ras G12S cross-linking assay (comparable procedure, conjugate formation, TOF mass spectrometry); design: key: 0: No observed x-linking; conditions: Table 4, percent covalently modified K-Ras by MS
Protocol: as §1, §2, §3, §4

Row | G12D x-linking (%) ([1]; Table 4) | WT x-linking (%) ([2]; Table 4) | G12S x-linking (%) [3] | Compound | G12D x-linking (%) ([1]; Table 5) | WT x-linking (%) ([2]; Table 5)
1 | + (0 < x ≤ 20) | + (0 < x ≤ 20) | ++ (10 < x ≤ 100) | CN=C=NC1CCN(c2ncnc3c(F)c(-c4ccccc4F)c(Cl)cc23)CC1 [Example 4, N-(1-(6-chloro-8-fluoro-7-(2-fluorophenyl)quinazolin-4-yl)piperidin-4-yl)-N-methylmethanediimine] |  | 
2 | 0 | 0 | 0 | COc1ccc(N=C=NC2CCN(c3ncnc4c(F)c(-c5ccccc5F)c(Cl)cc34)CC2)cc1 [Example 5, N-(1-(6-chloro-8-fluoro-7-(2-fluorophenyl)quinazolin-4-yl)piperidin-4-yl)-N-(4-methoxyphenyl)methanediimine] |  | 
3 | 0 | 0 | 0 | Fc1ccccc1-c1c(Cl)cc2c(N3CCC(N=C=Nc4ccc(Cl)cc4)CC3)ncnc2c1F [Example 6, N-(1-(6-chloro-8-fluoro-7-(2-fluorophenyl)quinazolin-4-yl)piperidin-4-yl)-N-(4-chiorophenyl)methanediimine] |  | 
4 | + (0 < x ≤ 20) | + (0 < x ≤ 20) | + (0 < x ≤ 10) | CN(CCN=C=Nc1ccccc1)c1ncnc2c(F)c(-c3ccccc3F)c(Cl)cc12 [Example 7, 6-chloro-8-fluoro-7-(2-fluorophenyl)-N-methyl-N-(2-(((phenylimino)methylene)amino)ethyl)quinazolin-4-amine] |  | 
5 | + (0 < x ≤ 20) | + (0 < x ≤ 20) | + (0 < x ≤ 10) | CN(CCN=C=NCc1ccccc1)c1ncnc2c(F)c(-c3ccccc3F)c(Cl)cc12 [Example 8, N-(2-(((benzylimino)methylene)amino)ethyl)-6-chloro-8-fluoro-7-(2-fluorophenyl)-N-methylquinazolin-4-amine] |  | 

Second part, the compound before the results:

Row | Compound | G12D x-linking (%) ([1]; Table 4) | WT x-linking (%) ([2]; Table 4) | G12S x-linking (%) [3] | G12D x-linking (%) ([1]; Table 5) | WT x-linking (%) ([2]; Table 5)
6 | Fc1ccccc1-c1c(Cl)cc2c(N3CCC(N=C=NCc4ccccc4)CC3)ncnc2c1F [Example 1, N-benzyl-N-(1-(6-chloro-8-fluoro-7-(2-fluorophenyl)quinazolin-4-yl)piperidin-4-yl)methanediimine] | + (0 < x ≤ 20) | + (0 < x ≤ 20) | + (0 < x ≤ 10) |  | 
7 | Fc1ccccc1-c1c(Cl)cc2c(N3CCC(N=C=Nc4ccccc4)CC3)ncnc2c1F [Example 2, N-(1-(6-chloro-8-fluoro-7-(2-fluorophenyl)quinazolin-4-yl)piperidin-4-yl)-N-phenylmethanediimine] | + (0 < x ≤ 20) | + (0 < x ≤ 20) | + (0 < x ≤ 10) |  | 
8 | CC(C)N=C=NC1CCN(c2ncnc3c(F)c(-c4ccccc4F)c(Cl)cc23)CC1 [Example 3] | + (0 < x ≤ 20) | + (0 < x ≤ 20) | + (0 < x ≤ 10) |  | 
9 | Cc1cccc2cccc(N3CCc4c(nc(OC[C@@H]5CCCN5C)nc4N4CCN(C(=O)[C@H]5CN5S(C)(=O)=O)[C@@H](CC#N)C4)C3)c12 (some centres unmarked) [Example 131] |  |  |  | + (0 < x ≤ 20) | + (0 < x ≤ 20)
10 | Cc1cccc2cccc(N3CCc4c(nc(OC[C@@H]5CCCN5C)nc4N4CCN(C(=O)[C@@H]5CN5S(C)(=O)=O)[C@@H](CC#N)C4)C3)c12 (some centres unmarked) [Example 132] |  |  |  | + (0 < x ≤ 20) | + (0 < x ≤ 20)
11 | O=C([C@@H]1CN1)N1CCN2c3ncnc4cc(-c5c(O)cccc5F)c(Cl)c(c34)OCC[C@@H]2C1 [Example 134] |  |  |  | + (0 < x ≤ 20) | + (0 < x ≤ 20)
12 | Cc1ccnc(C(C)C)c1-n1c(=O)nc(N2[C@H](C)CN(C(=O)[C@H]3CN3)C[C@@H]2C)c2cc(F)c(-c3c(O)cccc3F)nc21 [Example 135] |  |  |  | 0 | 0
13 | Cc1ccnc(C(C)C)c1-n1c(=O)nc(N2[C@@H](C)CN(C(=O)[C@H]3CN3)C[C@@H]2C)c2cc(F)c(-c3c(O)cccc3F)nc21 [Example 136] |  |  |  | + (0 < x ≤ 20) | + (0 < x ≤ 20)
14 | Cc1ccnc(C(C)C)c1-n1c(=O)nc(N2[C@H](C)CN(C(=O)[C@H]3CN3)C[C@H]2C)c2cc(F)c(-c3c(O)cccc3F)nc21 [Example 137] |  |  |  | 0 | 0
15 | Cc1ccnc(C(C)C)c1-n1c(=O)nc(N2C[C@@H](C)N(C(=O)[C@H]3CN3)C[C@@H]2C)c2cc(F)c(-c3c(O)cccc3F)nc21 [Example 138] |  |  |  | 0 | 0
16 | Cc1ccnc(C(C)C)c1-n1c(=O)nc(N2C[C@H](C)N(C(=O)[C@H]3CN3)C[C@H]2C)c2cc(F)c(-c3c(O)cccc3F)nc21 [Example 139] |  |  |  | 0 | 0
17 | Cc1ccnc(C(C)C)c1-n1c(=O)nc(N2[C@H](C)CN(C(=O)[C@@H]3CN3)C[C@@H]2C)c2cc(F)c(-c3c(O)cccc3F)nc21 [Example 140] |  |  |  | 0 | 0
18 | Cc1ccnc(C(C)C)c1-n1c(=O)nc(N2[C@H](C)CN(C(=O)[C@@H]3CN3)C[C@H]2C)c2cc(F)c(-c3c(O)cccc3F)nc21 [Example 142] |  |  |  | + (0 < x ≤ 20) | + (0 < x ≤ 20)
19 | Cc1ccnc(C(C)C)c1-n1c(=O)nc(N2C[C@@H](C)N(C(=O)[C@@H]3CN3)C[C@@H]2C)c2cc(F)c(-c3c(O)cccc3F)nc21 [Example 143] |  |  |  | 0 | 0
20 | Cc1ccnc(C(C)C)c1-n1c(=O)nc(N2C[C@H](C)N(C(=O)[C@@H]3CN3)C[C@H]2C)c2cc(F)c(-c3c(O)cccc3F)nc21 [Example 144] |  |  |  | 0 | 0
21 | CO[C@H]1CCCC[C@@H]1N=C=NC1CCN(c2nc(OC[C@@H]3CCCN3C)nc3c2CCN(c2cccc4cccc(C)c24)C3)CC1 [Example 145] |  |  |  | + (0 < x ≤ 20) | + (0 < x ≤ 20)
22 | CO[C@@H]1CCCC[C@@H]1N=C=NC1CCN(c2nc(OC[C@@H]3CCCN3C)nc3c2CCN(c2cccc4cccc(C)c24)C3)CC1 [Example 146] |  |  |  | + (0 < x ≤ 20) | + (0 < x ≤ 20)
23 | CO[C@@H]1CCCC[C@H]1N=C=NC1CCN(c2nc(OC[C@@H]3CCCN3C)nc3c2CCN(c2cccc4cccc(C)c24)C3)CC1 [Example 147] |  |  |  | + (0 < x ≤ 20) | + (0 < x ≤ 20)
24 | CO[C@H]1CCCC[C@H]1N=C=NC1CCN(c2nc(OC[C@@H]3CCCN3C)nc3c2CCN(c2cccc4cccc(C)c24)C3)CC1 [Example 148] |  |  |  | + (0 < x ≤ 20) | + (0 < x ≤ 20)
25 | COC1CC1N=C=NC1CCN(c2nc(OC[C@@H]3CCCN3C)nc3c2CCN(c2cccc4cccc(C)c24)C3)CC1 (some centres unmarked) [Example 151] |  |  |  | +++ (40 < x ≤ 100) | + (0 < x ≤ 20)
26 | COCC1(N=C=N[C@H]2C[C@H](Nc3nc(OC[C@@H]4CCCN4C)nc4c3CCN(c3cccc5cccc(C)c35)C4)C2)CC1 [Example 152] |  |  |  | +++ (40 < x ≤ 100) | + (0 < x ≤ 20)
27 | COCC1(N=C=N[C@@H]2CCN(c3nc(OC[C@@H]4CCCN4C)nc4c3CCN(c3cccc5cccc(C)c35)C4)C[C@@H]2CC#N)CC1 [Example 153] |  |  |  | ++ (20 < x ≤ 40) | + (0 < x ≤ 20)
